Laboratory results reported in patent US9233982B2, “Spiro tetrahydro—benzothiophen derivatives useful for the treatment neurodegenerative diseases” (Ares Trading S.A., priority 2012, dated 2016).
Where a name gives a salt, the structure may show the parent alone.

What was measured:
[1] = target: T1, BACE-1 (Homo sapiens, UniProt P56817); assay: LanthaScreen BACE1 biochemical assay (TR-FRET)
Method: Biochemical Assay to Assess Compounds for Inhibition of BACE-1
The LanthaScreen™ BACE1 assay kit from Invitrogen (Catalogue number PV4748) was used as the primary assay in the screening cascade.
Briefly, the test compound was incubated with the enzyme and substrate for 1 hour at room temperature in a reaction volume of 15 μl and then 5 nM terbium labelled anti-biotin antibody was added to stop the reaction and the solution incubated for a further 1 hour at room temperature. The microplate was read on an Envision plate reader fitted with a photometric 340 nm excitation filter and the amount of substrate that had been cleaved was represented by the TR-FRET ratio, calculated by dividing the Fluorescein emission signal (520 nm) by the Terbium emission signal (495 nm).

[2] = target: T1, BACE-1; assay: HTRF cell based assay, Aβ1-40 peptide secreted by recombinant HEK293 cells; set-up: endogenous in cells; host or cells: recombinant HEK293 cells engineered to over-produce APP; settings: Aβ1-40 secretion, recombinant HEK293 cells producing APP, overnight treatment; read-out: Cellular assay EC50 Ranges
Method: The cell based assay used to support the program utilized HTRF assay reagents from Cisbio (Catalogue number 62B40PEB) to quantify the amount of Aβ1-40 peptide secreted by recombinant HEK293 cells. The cells were engineered to produce high quantities of APP, the precursor for Aβ1-40 peptide, under hygromycin selection pressure. Briefly, cells were plated into 384-well microplates and allowed to settle for 2 hours prior to compound addition. Following overnight treatment with compound, the media containing secreted peptide was transferred into a low volume assay plate for quantification with HTRF immunoassay reagents. Adhering to the manufacturers protocol for quantification, a TR-FRET signal is obtained in the presence of the Aβ1-40 peptide following addition of a cryptate conjugated antibody and an XL665 conjugated antibody, each raised to a different epitope of the Aβ1-40 peptide. A low FRET signal is obtained when cells are treated with compounds that inhibit APP cleavage and peptide secretion.

T1 sequence (P56817 46-501): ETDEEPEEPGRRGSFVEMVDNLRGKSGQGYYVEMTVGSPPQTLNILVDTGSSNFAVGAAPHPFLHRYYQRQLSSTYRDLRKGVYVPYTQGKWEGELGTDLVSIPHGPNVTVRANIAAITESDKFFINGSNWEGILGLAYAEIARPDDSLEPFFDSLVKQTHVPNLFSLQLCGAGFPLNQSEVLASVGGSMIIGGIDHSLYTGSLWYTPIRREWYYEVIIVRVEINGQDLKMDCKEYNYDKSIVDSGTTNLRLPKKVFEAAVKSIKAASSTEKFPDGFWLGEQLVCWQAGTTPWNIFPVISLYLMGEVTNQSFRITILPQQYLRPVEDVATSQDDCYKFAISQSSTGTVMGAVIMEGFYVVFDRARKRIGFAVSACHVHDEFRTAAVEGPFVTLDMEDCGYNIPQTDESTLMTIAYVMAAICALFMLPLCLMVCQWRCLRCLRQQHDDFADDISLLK

SMILES	IC50 [1]	EC50 [2]
N#Cc1ccc(Cl)c(-c2cc3c(s2)CCCC32CCSC(N)=N2)c1 (centres unmarked) [Example 16]	1 to 5 µM	≤ 1 µM
COc1cc(C#N)cc(-c2cc3c(s2)CCCC32CCSC(N)=N2)c1 (centres unmarked) [Example 17]	1 to 5 µM	1 to 5 µM
COc1ncc(-c2cc3c(s2)CCCC32CCSC(N)=N2)cc1C#N (centres unmarked) [Example 18]	5 to 65 µM	1 to 5 µM
N#Cc1cncc(-c2cc3c(s2)CCCC32CCSC(N)=N2)c1 (centres unmarked) [Example 19]	5 to 65 µM	1 to 5 µM
N#Cc1cc(-c2cc3c(s2)CCCC32CCSC(N)=N2)ccn1 (centres unmarked) [Example 20]	5 to 65 µM	1 to 5 µM
NC1=NC2(CCCc3sc(-c4cccc(-c5ccccc5)c4)cc32)CCS1 (centres unmarked) [Example 21]	1 to 5 µM	5 to 50 µM
COc1ccc(-c2cc3c(s2)CCCC32CCSC(N)=N2)cc1C#N (centres unmarked) [Example 22]	5 to 65 µM	1 to 5 µM
COCc1cccc(-c2cc3c(s2)CCCC32CCSC(N)=N2)c1 (centres unmarked) [Example 23]	5 to 65 µM	1 to 5 µM
NC1=NC2(CCCc3sc(-c4cccc(OC(F)(F)F)c4)cc32)CCS1 (centres unmarked) [Example 24]	1 to 5 µM	5 to 50 µM
NC1=NC2(CCCc3sc(-c4cccc(C(F)(F)F)c4)cc32)CCS1 (centres unmarked) [Example 25]	1 to 5 µM	5 to 50 µM
NC1=NC2(CCCc3sc(-c4cccc(Oc5ccccc5)c4)cc32)CCS1 (centres unmarked) [Example 26]	1 to 5 µM	5 to 50 µM
CC(C)c1cccc(-c2cc3c(s2)CCCC32CCSC(N)=N2)c1 (centres unmarked) [Example 27]	1 to 5 µM	5 to 50 µM
NC1=NC2(CCCc3sc(-c4cccc(Cl)c4)cc32)CCS1 (centres unmarked) [Example 28]	1 to 5 µM	5 to 50 µM
NC1=NC2(CCCc3sc(-c4ccc(-c5ccccc5)cc4)cc32)CCS1 (centres unmarked) [Example 29]	1 to 5 µM	5 to 50 µM
NC1=NC2(CCCc3sc(-c4cccc(OCc5ccccc5)c4)cc32)CCS1 (centres unmarked) [Example 30]	1 to 5 µM	5 to 50 µM
N#Cc1cccc(-c2cc3c(s2)CCCC32CCSC(N)=N2)n1 (centres unmarked) [Example 31]	1 to 5 µM	1 to 5 µM
N#Cc1cc(-c2cc3c(s2)CCCC32CCSC(N)=N2)cc(C(F)(F)F)c1 (centres unmarked) [Example 32]	1 to 5 µM	5 to 50 µM
COc1ccc(-c2cccc(-c3cc4c(s3)CCCC43CCSC(N)=N3)c2)cc1 (centres unmarked) [Example 33]	1 to 5 µM	5 to 50 µM
N#Cc1cc(Cl)cc(-c2cc3c(s2)CCCC32CCSC(N)=N2)c1 (centres unmarked) [Example 34]	1 to 5 µM	1 to 5 µM
Cc1cc(C#N)cc(-c2cc3c(s2)CCCC32CCSC(N)=N2)c1 (centres unmarked) [Example 35]	1 to 5 µM	1 to 5 µM

SMILES	IC50 [1]	EC50 [2]
NC1=NC2(CCCc3sc(-c4cccc(-c5ccccn5)c4)cc32)CCS1 (centres unmarked) [Example 36]	5 to 65 µM	5 to 50 µM
CC(C)(C)c1cccc(-c2cc3c(s2)CCCC32CCSC(N)=N2)c1 (centres unmarked) [Example 37]	5 to 65 µM	5 to 50 µM
COc1cccc(-c2cccc(-c3cc4c(s3)CCCC43CCSC(N)=N3)c2)c1 (centres unmarked) [Example 38]	1 to 5 µM	5 to 50 µM
NC1=NC2(CCCc3sc(-c4cccc(CC(F)(F)F)c4)cc32)CCS1 (centres unmarked) [Example 39]	5 to 65 µM	5 to 50 µM
NC1=NC2(CCCc3sc(NC(=O)c4ccc(Br)cn4)cc32)CCS1 (centres unmarked) [Example 40]	5 to 65 µM	5 to 50 µM
COc1cccc(-c2cccc(-c3cc4c(s3)CC(C)(C)CC43CCSC(N)=N3)c2)c1 (centres unmarked) [Example 41, 2-(3′-methoxybiphenyl-3-yl)-6,6-dimethyl-5′,6,6′,7-tetrahydro-5H-spiro[benzo[b]thiophene-4,4′-[1,3]thiazin]-2′-amine, Formate Salt]	1 to 5 µM	5 to 50 µM
COc1ccc(-c2cccc(-c3cc4c(s3)CC(C)(C)CC43CCSC(N)=N3)c2)cc1 (centres unmarked) [Example 42]	1 to 5 µM	5 to 50 µM
CC1(C)CCc2sc(-c3cccc(C(F)(F)F)c3)cc2C12CCSC(N)=N2 (centres unmarked) [Example 46, 5,5-dimethyl-2-(3-(trifluoromethyl)phenyl)-5′,6,6′,7-tetrahydro-5H-spiro[benzo[b]thiophene-4,4′-[1,3]thiazin]-2′-amine]	5 to 65 µM	5 to 50 µM
CN1C(=O)C2(CCCc3sc(-c4cccc(C#N)c4)cc32)N=C1N (centres unmarked) [Example 49, 3-(2′-amino-1′-methyl-5′-oxo-1′,5′,6,7-tetrahydro-5H-spiro[benzo[b]thiophene-4,4′-imidazole]-2-yl)benzonitrile]	< 1 µM	≤ 1 µM
CN1C(=O)C2(CCCc3sc(-c4cccnc4)cc32)N=C1N (centres unmarked) [Example 52]	5 to 65 µM	1 to 5 µM
CN1C(=O)C2(CCCc3sc(-c4cccc(OC(F)(F)F)c4)cc32)N=C1N (centres unmarked) [Example 53]	1 to 5 µM	5 to 50 µM
CN1C(=O)C2(CCCc3sc(-c4cccc(C(F)(F)F)c4)cc32)N=C1N (centres unmarked) [Example 54]	< 1 µM	1 to 5 µM
COc1cc(C#N)cc(-c2cc3c(s2)CCCC32N=C(N)N(C)C2=O)c1 (centres unmarked) [Example 55]	1 to 5 µM	1 to 5 µM
CN1C(=O)C2(CCCc3sc(-c4cccc(Cl)c4)cc32)N=C1N (centres unmarked) [Example 56]	1 to 5 µM	1 to 5 µM
N#Cc1cccc(-c2cc3c(s2)CCCC32N=C(N)N(Cc3ccccc3)C2=O)c1 (centres unmarked) [Example 57, 3-(2′-amino-1′-benzyl-5′-oxo-1′,5′,6,7-tetrahydro-5H-spiro[benzo[b]thiophene-4,4′-imidazole]-2-yl)benzonitrile]	< 1 µM	5 to 50 µM
CN1OC2(CCCc3sc(-c4cccc(C(F)(F)F)c4)cc32)N=C1N (centres unmarked) [Example 58, 2′-methyl-2-(3-(trifluoromethyl)phenyl)-6,7-dihydro-2′H,5H-spiro[benzo[b]thiophene-4,5′-[1,2,4]oxadiazol]-3′-amine]	1 to 5 µM	5 to 50 µM
NC1=NC2(CCCc3sc(-c4cccc(C(F)(F)F)c4)cc32)ON1Cc1ccccc1 (centres unmarked) [Example 59]	1 to 5 µM	5 to 50 µM
N#Cc1cccc(-c2cc3c(s2)CCCC32N=C(N)N(Cc3ccccc3)O2)c1 (centres unmarked) [Example 60]	< 1 µM	5 to 50 µM
NC1=NC2(CCCc3cc(-c4cccc(-c5ccccc5)c4)sc32)CCS1 (centres unmarked) [Example 61]	1 to 5 µM	5 to 50 µM
N#Cc1cccc(-c2cc3c(s2)C2(CCC3)CCSC(N)=N2)c1 (centres unmarked) [Example 62]	5 to 65 µM	5 to 50 µM
